According to patent US11931343B2 (ARCUS BIOSCIENCES, INC., priority 2018, dated 2024):

Biological target: T1, human CD73 (Homo sapiens, UniProt P21589)
T1 sequence (P21589 27-549): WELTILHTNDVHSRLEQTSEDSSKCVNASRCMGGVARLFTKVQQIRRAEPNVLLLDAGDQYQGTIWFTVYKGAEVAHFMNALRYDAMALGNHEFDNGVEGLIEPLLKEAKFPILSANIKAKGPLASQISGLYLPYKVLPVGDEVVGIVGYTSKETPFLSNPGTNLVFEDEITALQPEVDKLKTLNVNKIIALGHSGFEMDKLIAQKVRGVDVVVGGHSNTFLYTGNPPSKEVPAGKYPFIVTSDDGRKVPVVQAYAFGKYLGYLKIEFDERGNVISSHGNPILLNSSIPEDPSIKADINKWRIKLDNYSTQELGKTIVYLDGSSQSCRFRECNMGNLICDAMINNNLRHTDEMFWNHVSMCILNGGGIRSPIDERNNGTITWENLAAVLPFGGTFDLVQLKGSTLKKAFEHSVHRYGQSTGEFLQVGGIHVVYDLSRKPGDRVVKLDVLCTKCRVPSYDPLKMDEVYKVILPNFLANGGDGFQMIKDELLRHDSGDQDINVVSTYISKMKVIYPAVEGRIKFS
Assay: Inhibition of Ecto-5′-nucleotidase (CD73) activity in CHO-CD73 cells, phosphate release from AMP
Format: cell-based
Conditions: CHO-K1 cells stably transfected with human CD73; 25 μM AMP; 50 minutes, 37° C.; read-out: Potency: CD73 IC50

Row | SMILES | IC50
1 | N#Cc1ccc(Cn2nccc2-c2cc(F)c3nnn(-c4ccc5[nH]c(=O)[nH]c5c4)c3c2)c(N2CCCC2=O)c1 [Example 232] | 100 to 1000 nM
2 | O=c1[nH]c2ccc(-n3nnc4c(F)cc(-c5ccnn5Cc5ccc6c(c5)OC(F)(F)O6)cc43)cc2[nH]1 [Example 233] | > 1000 nM
3 | Cc1ccc(Cn2nccc2-c2cc(Cl)c3nnn(-c4ccc5[nH]c(=O)[nH]c5c4)c3c2)c(Cl)c1 [Example 234] | 100 to 1000 nM
4 | N#Cc1ccc(Cn2nccc2-c2cc(F)c3nnn(-c4ccc5[nH]c(=O)[nH]c5c4)c3c2)c(Cl)c1 [Example 235] | < 100 nM
5 | COc1cc(F)ccc1Cn1nccc1-c1cc(F)c2nnn(-c3ccc4[nH]c(=O)[nH]c4c3)c2c1 [Example 236] | > 1000 nM
6 | COc1cc(F)ccc1Cn1nccc1-c1cc2c(cn1)nnn2-c1ccc2[nH]c(=O)[nH]c2c1 [Example 237] | > 1000 nM
7 | O=c1[nH]c2ccc(-n3nnc4c(Cl)cc(-c5ccnn5Cc5ccncc5F)cc43)cc2[nH]1 [Example 238] | 100 to 1000 nM
8 | N#Cc1ccc(Cn2nccc2-c2cc(F)c3nnn(-c4ccc5[nH]c(=O)[nH]c5c4)c3c2)c(F)c1 [Example 239] | 100 to 1000 nM
9 | N#Cc1ccc(Cn2nccc2-c2ccc3nnn(-c4ccc5[nH]c(=O)[nH]c5c4)c3c2)c(F)c1 [Example 240] | 100 to 1000 nM
10 | Cc1cc(C)cc(-n2nccc2-c2cc(Cl)c3nnn(-c4ccc5[nH]c(=O)[nH]c5c4)c3c2)c1 [Example 241] | 100 to 1000 nM
11 | O=c1[nH]c2ccc(-n3nnc4c(F)cc(-c5ccnn5Cc5cccc6cn[nH]c56)cc43)cc2[nH]1 [Example 242] | > 1000 nM
12 | O=c1[nH]c2ccc(-n3nnc4c(F)cc(-c5ccnn5Cc5nc6ccccc6[nH]5)cc43)cc2[nH]1 [Example 243] | 100 to 1000 nM
13 | Cc1ncc(Cn2nccc2-c2cc(Cl)c3nnn(-c4ccc5[nH]c(=O)[nH]c5c4)c3c2)o1 [Example 244] | > 1000 nM
14 | COc1ccc(Cn2nccc2-c2cc(F)c3nnn(-c4ccc5[nH]c(=O)[nH]c5c4)c3c2)c(F)c1 [Example 245] | 100 to 1000 nM
15 | COc1ccc(Cn2nccc2-c2cc(F)c3nnn(-c4ccc5[nH]c(=O)[nH]c5c4)c3c2)c(Cl)c1 [Example 246] | 100 to 1000 nM
16 | COc1ccc(Cn2nccc2-c2cc3c(cn2)nnn3-c2ccc3[nH]c(=O)[nH]c3c2)c(F)c1 [Example 247] | 100 to 1000 nM
17 | COc1ccc(Cn2nccc2-c2cc3c(cn2)nnn3-c2ccc3[nH]c(=O)[nH]c3c2)c(Cl)c1 [Example 248] | 100 to 1000 nM
18 | Cn1nccc1Cn1nccc1-c1cc(F)c2nnn(-c3ccc4[nH]c(=O)[nH]c4c3)c2c1 [Example 249] | > 1000 nM
19 | N#Cc1ccc(Cn2nccc2-c2cc(Cl)c3nnn(-c4ccc5[nH]c(=O)[nH]c5c4)c3c2)c(Cl)c1 [Example 250] | < 100 nM
20 | CS(=O)(=O)Nc1cc(Cl)ccc1Cn1nccc1-c1cc(F)c2nnn(-c3ccc4[nH]c(=O)[nH]c4c3)c2c1 [Example 251] | > 1000 nM
21 | O=c1[nH]c2ccc(-n3nnc4c(Cl)cc(-c5ccnn5Cc5cc(F)ccc5F)cc43)cc2[nH]1 [Example 252] | > 1000 nM

Row | SMILES | IC50
22 | Cc1ccc(Cn2nccc2-c2cc(Cl)c3nnn(-c4ccc5[nH]c(=O)[nH]c5c4)c3c2)c(F)c1F [Example 253] | 100 to 1000 nM
23 | O=c1[nH]c2ccc(-n3nnc4c(Cl)cc(-c5ccnn5Cc5ccc(F)c(F)c5)cc43)cc2[nH]1 [Example 254] | 100 to 1000 nM
24 | N#Cc1cnc(Cn2nccc2-c2cc(F)c3nnn(-c4ccc5[nH]c(=O)[nH]c5c4)c3c2)c(F)c1 [Example 255] | 100 to 1000 nM
25 | O=c1[nH]c2ccc(-n3nnc4c(Cl)cc(-c5ccnn5Cc5cc(F)c(Cl)cc5Cl)cc43)cc2[nH]1 [Example 256] | 100 to 1000 nM
26 | O=c1[nH]c2ccc(-n3nnc4c(F)cc(-c5ccnn5Cc5ccc6[nH]cnc6c5)cc43)cc2[nH]1 [Example 257] | > 1000 nM
27 | CC(C)c1cccc(-n2nccc2-c2cc(Cl)c3nnn(-c4ccc5[nH]c(=O)[nH]c5c4)c3c2)c1 [Example 258] | 100 to 1000 nM
28 | CS(=O)(=O)c1cc(C#N)ccc1Cn1nccc1-c1cc(F)c2nnn(-c3ccc4[nH]c(=O)[nH]c4c3)c2c1 [Example 260] | 100 to 1000 nM
29 | CCS(=O)(=O)c1cc(C#N)ccc1Cn1nccc1-c1cc(F)c2nnn(-c3ccc4[nH]c(=O)[nH]c4c3)c2c1 [Example 261] | 100 to 1000 nM
30 | O=c1[nH]c2ccc(-n3nnc4c(Cl)cc(-c5ccnn5C5CCc6cc(Cl)ccc65)cc43)cc2[nH]1 (stereo not drawn) [Example 262] | 100 to 1000 nM
31 | Cc1cc(-n2nccc2-c2cc(Cl)c3nnn(-c4ccc5[nH]c(=O)[nH]c5c4)c3c2)ccc1Cl [Example 263] | > 1000 nM
32 | C=C(C)c1cc(C#N)ccc1Cn1nccc1-c1cc(F)c2nnn(-c3ccc4[nH]c(=O)[nH]c4c3)c2c1 [Example 264] | 100 to 1000 nM
33 | O=c1[nH]c2ccc(-n3nnc4c(Cl)cc(-c5ccnn5Cc5cccc[n+]5[O-])cc43)cc2[nH]1 [Example 265] | > 1000 nM
34 | Cn1ccc(Cn2nccc2-c2cc(F)c3nnn(-c4ccc5[nH]c(=O)[nH]c5c4)c3c2)n1 [Example 266] | > 1000 nM
35 | N#Cc1ccc(Cn2nccc2-c2cc(F)c3nnn(-c4ccc5[nH]c(=O)[nH]c5c4)c3c2)c(Br)c1 [Example 267] | 100 to 1000 nM
36 | N#Cc1ccc(Cn2nccc2-c2cc(F)c3nnn(-c4ccc5[nH]c(=O)[nH]c5c4)c3c2)c(CN2CCOCC2)c1 [Example 268] | > 1000 nM
37 | N#Cc1cnc(Cn2nccc2-c2cc(Cl)c3nnn(-c4ccc5[nH]c(=O)[nH]c5c4)c3c2)c(Cl)c1 [Example 269] | 100 to 1000 nM
38 | Cc1cc(C#N)ccc1Cn1nccc1-c1cc(Cl)c2nnn(-c3ccc4[nH]c(=O)[nH]c4c3)c2c1 [Example 270] | < 100 nM
39 | N#Cc1ccc(Cn2nccc2-c2cc(F)c3nnn(-c4ccc5[nH]c(=O)[nH]c5c4)c3c2)c(C(F)(F)F)c1 [Example 271] | 100 to 1000 nM
40 | N#Cc1cc(F)c(Cn2nccc2-c2cc(Cl)c3nnn(-c4ccc5[nH]c(=O)[nH]c5c4)c3c2)cc1F [Example 272] | 100 to 1000 nM
41 | N#Cc1cc(F)c(Cn2nccc2-c2cc(Cl)c3nnn(-c4ccc5[nH]c(=O)[nH]c5c4)c3c2)c(F)c1 [Example 273] | 100 to 1000 nM
42 | Nc1nn(-c2ccc3cn[nH]c3c2)c2cc(-c3ccnn3Cc3ccc(Cl)cn3)cnc12 [Example 274] | 100 to 1000 nM

Row | SMILES | IC50
43 | O=c1[nH]c2ccc(-n3nnc4c(Cl)cc(-c5ccnn5C5Cc6ccc(Cl)cc6C5)cc43)cc2[nH]1 (stereo not drawn) [Example 275] | 100 to 1000 nM
44 | N#Cc1cc(F)c(Cn2nccc2-c2cc(F)c3nnn(-c4ccc5[nH]c(=O)[nH]c5c4)c3c2)c(Cl)c1 [Example 276] | > 1000 nM
45 | N#Cc1ccc(Cn2nccc2-c2cc(F)c3nnn(-c4ccc5[nH]c(=O)[nH]c5c4)c3c2)c(CN[C@H]2CCOC2)c1 [Example 277] | > 1000 nM
46 | N#Cc1ccc(Cn2nccc2-c2cc(F)c3nnn(-c4ccc5[nH]c(=O)[nH]c5c4)c3c2)c(CN2CCCC2)c1 [Example 278] | > 1000 nM
47 | COCc1cc(C#N)ccc1Cn1nccc1-c1cc(F)c2nnn(-c3ccc4[nH]c(=O)[nH]c4c3)c2c1 [Example 279] | 100 to 1000 nM
48 | Cc1cc(C#N)cnc1Cn1nccc1-c1cc(F)c2nnn(-c3ccc4[nH]c(=O)[nH]c4c3)c2c1 [Example 280] | > 1000 nM
49 | N#Cc1ccc(Cn2nccc2-c2cnc3c(N)nn(-c4ccc5cn[nH]c5c4)c3c2)nc1 [Example 281] | 100 to 1000 nM
50 | O=c1[nH]c2ccc(-n3nnc4c(F)cc(-c5ccnn5Cc5cccc(F)c5Cl)cc43)cc2[nH]1 [Example 282] | 100 to 1000 nM
51 | O=c1[nH]c2ccc(-n3nnc4c(F)cc(-c5ccnn5Cc5cccc(Cl)c5Cl)cc43)cc2[nH]1 [Example 283] | 100 to 1000 nM
52 | COc1cc(Cl)ccc1Cn1nccc1-c1cc(F)c2nnn(-c3ccc4[nH]c(=O)[nH]c4c3)c2c1 [Example 284] | 100 to 1000 nM
53 | N#Cc1ccc(Cn2nccc2-c2cc(F)c3nnn(-c4ccc5[nH]c(=O)[nH]c5c4)c3c2)c(CN2CCC2C(=O)O)c1 (stereo not drawn) [Example 285] | > 1000 nM
54 | N#Cc1ccc(Cn2nccc2-c2cc(F)c3nnn(-c4ccc5[nH]c(=O)[nH]c5c4)c3c2)c(CNC2CCCC2)c1 [Example 286] | 100 to 1000 nM
55 | Nc1cccc(Cn2nccc2-c2cc(Cl)c3nnn(-c4ccc5[nH]c(=O)[nH]c5c4)c3c2)n1 [Example 287] | > 1000 nM
56 | N#Cc1ccc(Cn2nccc2-c2cc(Cl)c3nnn(-c4ccc5[nH]c(=O)[nH]c5c4)c3c2)c(N2CCOCC2)c1 [Example 288] | > 1000 nM
57 | CC(=O)c1cc(C#N)ccc1Cn1nccc1-c1cc(F)c2nnn(-c3ccc4[nH]c(=O)[nH]c4c3)c2c1 [Example 289] | 100 to 1000 nM
58 | N#Cc1ccc(Cn2nccc2-c2cc(F)c3nnn(-c4ccc5[nH]c(=O)[nH]c5c4)c3c2)c(C(N)=O)c1 [Example 290] | 100 to 1000 nM
59 | N#Cc1ccc(Cn2nccc2-c2cc(F)c3nnn(-c4ccc5[nH]c(=O)[nH]c5c4)c3c2)c(S(=O)(=O)c2ccccc2)c1 [Example 291] | 100 to 1000 nM
60 | N#Cc1ccc(Cn2nccc2-c2cc(F)c3nnn(-c4ccc5[nH]c(=O)[nH]c5c4)c3c2)c(OC(F)(F)F)c1 [Example 292] | 100 to 1000 nM
61 | Cc1cc(-n2nccc2-c2cc(Cl)c3nnn(-c4ccc5[nH]c(=O)[nH]c5c4)c3c2)ccn1 [Example 293] | 100 to 1000 nM
62 | N#Cc1ccc(Cn2nccc2-c2cc(F)c3nnn(-c4ccc5[nH]c(=O)[nH]c5c4)c3c2)c(CN2CC(C(=O)O)C2)c1 [Example 294] | 100 to 1000 nM
63 | Nc1nn(-c2ccc3[nH]c(=O)[nH]c3c2)c2cc(-c3ccnn3Cc3ccc(Cl)cn3)cnc12 [Example 295] | > 1000 nM
